Laboratory results as given in ChEMBL document CHEMBL4118021, “Studies of TAK1-centered polypharmacology with novel covalent TAK1 inhibitors” (Bioorg Med Chem, 2017).
Active and inactive are the calls of the source.

Columns and labels:
Assay type in all cases: cell-based
[1] = target: Calcyclin-binding protein (Homo sapiens) (UniProt Q9HB71); assay: Binding affinity to CACYBP in human NCI-H23 cells at 1 uM by mass spectrometry based pull down assay
[2] = target: LIM domain kinase 1 (Homo sapiens) (UniProt P53667); assay: Binding affinity to LIMK1 in human NCI-H23 cells at 1 uM by mass spectrometry based pull down assay
[3] = target: X antigen family member 1 (Homo sapiens) (UniProt Q9HD64); assay: Binding affinity to XAGE1B in human NCI-H23 cells at 1 uM by mass spectrometry based pull down assay
[4] = target: Proteasome activator complex subunit 3 (Homo sapiens) (UniProt P61289); assay: Binding affinity to PSME3 in human NCI-H23 cells at 1 uM by mass spectrometry based pull down assay
[5] = target: Deoxyribose-phosphate aldolase (Homo sapiens) (UniProt Q9Y315); assay: Binding affinity to DERA in human NCI-H23 cells at 1 uM by mass spectrometry based pull down assay
[6] = target: T1, 80S Ribosome (Homo sapiens) (UniProt P08865+P42677+P62753+P15880+P23396+P61247+P62701+P22090+P46782+P62081+P62241+P46781+P46783+P62280+P25398+P62277+P62263+P62841+P62244+P62249+P08708+P62269+P39019+P60866+P63220+P62266+P62847+P62851+P62854+P62979+P62857+P62273+P62861+P39023+P36578+P46777+Q02878+P18124+P62424+P62917+P32969+P27635+P62906+P62913+P30050+P26373+P40429+P50914+P61313+P18621+Q07020+Q02543+P84098+P46778+P35268+P62829+P62750+P83731+P61254+P61353+P46776+P46779+P47914+P62888+P62899+P62910+P49207+P42766+P18077+Q9Y3U8+P83881+P61927+P61513+P63173+P62891+P62945+P05388+P05386); assay: Binding affinity to RPL17 in human NCI-H23 cells at 1 uM by mass spectrometry based pull down assay
[7] = target: Small ribosomal subunit protein uS7m (Homo sapiens) (UniProt Q9Y2R9); assay: Binding affinity to MRPS7 in human NCI-H23 cells at 1 uM by mass spectrometry based pull down assay
[8] = target: Bifunctional 3'-phosphoadenosine 5'-phosphosulfate synthase 2 (Homo sapiens) (UniProt O95340); assay: Binding affinity to PAPSS2 in human NCI-H23 cells at 1 uM by mass spectrometry based pull down assay
[9] = target: Dihydropyrimidinase-related protein 2 (Homo sapiens) (UniProt Q16555); assay: Binding affinity to DPYSL2 in human NCI-H23 cells at 1 uM by mass spectrometry based pull down assay
[10] = target: Fructose-2,6-bisphosphatase TIGAR (Homo sapiens) (UniProt Q9NQ88); assay: Binding affinity to TIGAR in human NCI-H23 cells at 1 uM by mass spectrometry based pull down assay
[11] = target: Aurora kinase B (Homo sapiens) (UniProt Q96GD4); assay: Binding affinity to AURKB in human NCI-H23 cells at 1 uM by mass spectrometry based pull down assay
[12] = target: T1, 80S Ribosome (Homo sapiens); assay: Binding affinity to RPL23A in human NCI-H358 cells at 1 uM by mass spectrometry based pull down assay
[13] = target: T1, 80S Ribosome (Homo sapiens); assay: Binding affinity to RPS23 in human NCI-H358 cells at 1 uM by mass spectrometry based pull down assay
[14] = target: Phosphatidylinositol 3-kinase catalytic subunit type 3 (Homo sapiens) (UniProt Q8NEB9); assay: Binding affinity to PIK3C3 in human NCI-H358 cells at 1 uM by mass spectrometry based pull down assay
[15] = target: Protein disulfide-isomerase A4 (Homo sapiens) (UniProt P13667); assay: Binding affinity to PDIA4 in human NCI-H358 cells at 1 uM by mass spectrometry based pull down assay
[16] = target: Glucose-6-phosphate isomerase (Homo sapiens) (UniProt P06744); assay: Binding affinity to GPI in human NCI-H358 cells at 1 uM by mass spectrometry based pull down assay
[17] = target: T2, Non-receptor tyrosine-protein kinase TNK1 (Homo sapiens) (UniProt Q13470); assay: Binding affinity to TNK1 in human NCI-H358 cells at 1 uM by mass spectrometry based pull down assay
T2 sequence (whole entry): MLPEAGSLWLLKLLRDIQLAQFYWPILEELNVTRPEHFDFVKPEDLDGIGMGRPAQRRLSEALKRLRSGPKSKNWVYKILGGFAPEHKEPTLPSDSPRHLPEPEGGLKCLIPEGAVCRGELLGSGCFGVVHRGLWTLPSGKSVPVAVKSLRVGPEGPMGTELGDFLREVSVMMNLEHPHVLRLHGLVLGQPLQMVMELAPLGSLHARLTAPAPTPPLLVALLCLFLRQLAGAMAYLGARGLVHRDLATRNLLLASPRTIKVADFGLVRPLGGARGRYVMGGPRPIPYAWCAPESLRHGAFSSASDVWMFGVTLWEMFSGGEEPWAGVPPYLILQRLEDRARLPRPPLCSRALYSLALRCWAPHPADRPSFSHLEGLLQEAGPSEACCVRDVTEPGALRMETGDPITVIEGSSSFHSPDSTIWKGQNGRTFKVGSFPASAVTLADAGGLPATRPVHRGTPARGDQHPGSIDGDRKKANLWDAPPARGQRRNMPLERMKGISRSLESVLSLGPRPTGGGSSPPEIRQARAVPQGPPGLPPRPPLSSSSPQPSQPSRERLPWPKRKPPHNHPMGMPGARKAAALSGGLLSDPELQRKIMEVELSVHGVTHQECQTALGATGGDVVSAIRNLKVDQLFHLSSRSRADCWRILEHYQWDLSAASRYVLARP

[18] = target: Ketosamine-3-kinase (Homo sapiens) (UniProt Q9HA64); assay: Binding affinity to FN3KRP in human NCI-H358 cells at 1 uM by mass spectrometry based pull down assay
[19] = target: (E3-independent) E2 ubiquitin-conjugating enzyme (Homo sapiens) (UniProt Q9C0C9); assay: Binding affinity to UBE2O in human NCI-H358 cells at 1 uM by mass spectrometry based pull down assay
[20] = target: T1, 80S Ribosome (Homo sapiens); assay: Binding affinity to RPL5 in human NCI-H358 cells at 1 uM by mass spectrometry based pull down assay
[21] = target: Protein transport protein Sec23A (Homo sapiens) (UniProt Q15436); assay: Binding affinity to SEC23A in human NCI-H358 cells at 1 uM by mass spectrometry based pull down assay
Moesin (Homo sapiens) = Moesin (Homo sapiens) (UniProt P26038); assay: Binding affinity to MSN in human NCI-H358 cells at 1 uM by mass spectrometry based pull down assay
[22] = target: Serine/threonine-protein kinase MARK1 (Homo sapiens) (UniProt Q9P0L2); assay: Inhibition of MARK1 in human SKCO1 cells at 1 uM after 4 hrs using biotin labeled EVAVKIIDK probe by mass-spectrometric analysis relative to control

Sequence of Aurora kinase B (Homo sapiens) (Q96GD4 whole entry): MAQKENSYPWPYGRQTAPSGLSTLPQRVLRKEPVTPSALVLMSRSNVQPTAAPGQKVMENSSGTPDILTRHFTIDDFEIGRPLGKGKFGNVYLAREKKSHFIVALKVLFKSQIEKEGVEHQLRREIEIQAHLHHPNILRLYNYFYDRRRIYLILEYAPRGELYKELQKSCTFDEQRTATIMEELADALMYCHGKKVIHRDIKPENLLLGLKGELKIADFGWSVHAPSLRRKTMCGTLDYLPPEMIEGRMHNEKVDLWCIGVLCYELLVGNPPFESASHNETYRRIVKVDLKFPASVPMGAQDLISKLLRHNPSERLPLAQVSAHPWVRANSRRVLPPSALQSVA
Sequence of Moesin (Homo sapiens) (P26038 whole entry): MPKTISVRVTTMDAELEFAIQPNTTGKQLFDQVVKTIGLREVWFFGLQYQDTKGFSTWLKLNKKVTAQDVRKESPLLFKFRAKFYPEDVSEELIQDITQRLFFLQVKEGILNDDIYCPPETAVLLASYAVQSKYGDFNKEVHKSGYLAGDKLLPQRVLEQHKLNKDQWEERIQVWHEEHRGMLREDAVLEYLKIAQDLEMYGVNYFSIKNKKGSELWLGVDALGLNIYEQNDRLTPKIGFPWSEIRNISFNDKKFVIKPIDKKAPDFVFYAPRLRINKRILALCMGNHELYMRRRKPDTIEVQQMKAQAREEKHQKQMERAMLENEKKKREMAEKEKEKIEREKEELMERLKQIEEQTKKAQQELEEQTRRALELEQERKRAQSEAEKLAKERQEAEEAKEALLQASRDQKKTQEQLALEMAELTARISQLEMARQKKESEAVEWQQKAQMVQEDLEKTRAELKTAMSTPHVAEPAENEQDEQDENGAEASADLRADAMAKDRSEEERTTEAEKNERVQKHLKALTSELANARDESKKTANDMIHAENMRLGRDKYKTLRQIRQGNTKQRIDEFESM
Sequence of Calcyclin-binding protein (Homo sapiens) (Q9HB71 whole entry, the tested form may be a part): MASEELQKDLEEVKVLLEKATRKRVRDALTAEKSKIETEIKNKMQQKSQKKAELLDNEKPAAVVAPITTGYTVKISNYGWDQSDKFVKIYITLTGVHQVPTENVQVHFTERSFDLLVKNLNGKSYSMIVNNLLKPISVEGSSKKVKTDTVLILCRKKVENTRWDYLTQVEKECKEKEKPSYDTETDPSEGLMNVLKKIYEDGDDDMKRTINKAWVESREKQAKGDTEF
Sequence of Deoxyribose-phosphate aldolase (Homo sapiens) (Q9Y315 whole entry): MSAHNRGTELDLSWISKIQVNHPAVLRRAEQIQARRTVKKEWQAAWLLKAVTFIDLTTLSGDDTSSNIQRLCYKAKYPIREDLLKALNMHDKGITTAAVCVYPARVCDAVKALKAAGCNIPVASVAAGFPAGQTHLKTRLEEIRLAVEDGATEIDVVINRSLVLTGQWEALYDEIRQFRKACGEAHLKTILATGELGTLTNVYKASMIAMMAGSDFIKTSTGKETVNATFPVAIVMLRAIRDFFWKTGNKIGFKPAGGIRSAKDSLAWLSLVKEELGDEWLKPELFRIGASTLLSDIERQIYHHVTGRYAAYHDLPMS
Sequence of Proteasome activator complex subunit 3 (Homo sapiens) (P61289 whole entry, one chain of several): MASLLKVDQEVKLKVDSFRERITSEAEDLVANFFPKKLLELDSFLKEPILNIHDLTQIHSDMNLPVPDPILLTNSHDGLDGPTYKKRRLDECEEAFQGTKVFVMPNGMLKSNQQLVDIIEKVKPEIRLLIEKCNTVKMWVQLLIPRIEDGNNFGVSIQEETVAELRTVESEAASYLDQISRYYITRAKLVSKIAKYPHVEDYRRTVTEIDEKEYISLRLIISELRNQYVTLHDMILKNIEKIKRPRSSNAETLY
Sequence of Bifunctional 3'-phosphoadenosine 5'-phosphosulfate synthase 2 (Homo sapiens) (O95340 whole entry): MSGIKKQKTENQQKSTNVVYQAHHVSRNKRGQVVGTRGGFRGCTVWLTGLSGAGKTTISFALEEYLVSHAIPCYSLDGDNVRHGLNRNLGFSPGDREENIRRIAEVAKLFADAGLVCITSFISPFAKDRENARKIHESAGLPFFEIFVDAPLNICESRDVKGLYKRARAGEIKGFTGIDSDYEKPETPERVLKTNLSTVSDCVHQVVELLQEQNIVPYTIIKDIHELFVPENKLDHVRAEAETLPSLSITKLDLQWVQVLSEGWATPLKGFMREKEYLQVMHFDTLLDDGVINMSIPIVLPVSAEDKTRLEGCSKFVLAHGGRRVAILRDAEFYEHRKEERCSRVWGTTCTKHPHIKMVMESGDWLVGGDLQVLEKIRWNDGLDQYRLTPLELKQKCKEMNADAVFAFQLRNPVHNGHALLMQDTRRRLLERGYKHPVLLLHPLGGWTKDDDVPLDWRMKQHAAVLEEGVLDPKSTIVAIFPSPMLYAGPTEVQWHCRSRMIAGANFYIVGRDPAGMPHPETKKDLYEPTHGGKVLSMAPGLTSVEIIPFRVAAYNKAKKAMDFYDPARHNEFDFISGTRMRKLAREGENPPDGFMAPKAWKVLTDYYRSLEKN
Sequence of Phosphatidylinositol 3-kinase catalytic subunit type 3 (Homo sapiens) (Q8NEB9 whole entry): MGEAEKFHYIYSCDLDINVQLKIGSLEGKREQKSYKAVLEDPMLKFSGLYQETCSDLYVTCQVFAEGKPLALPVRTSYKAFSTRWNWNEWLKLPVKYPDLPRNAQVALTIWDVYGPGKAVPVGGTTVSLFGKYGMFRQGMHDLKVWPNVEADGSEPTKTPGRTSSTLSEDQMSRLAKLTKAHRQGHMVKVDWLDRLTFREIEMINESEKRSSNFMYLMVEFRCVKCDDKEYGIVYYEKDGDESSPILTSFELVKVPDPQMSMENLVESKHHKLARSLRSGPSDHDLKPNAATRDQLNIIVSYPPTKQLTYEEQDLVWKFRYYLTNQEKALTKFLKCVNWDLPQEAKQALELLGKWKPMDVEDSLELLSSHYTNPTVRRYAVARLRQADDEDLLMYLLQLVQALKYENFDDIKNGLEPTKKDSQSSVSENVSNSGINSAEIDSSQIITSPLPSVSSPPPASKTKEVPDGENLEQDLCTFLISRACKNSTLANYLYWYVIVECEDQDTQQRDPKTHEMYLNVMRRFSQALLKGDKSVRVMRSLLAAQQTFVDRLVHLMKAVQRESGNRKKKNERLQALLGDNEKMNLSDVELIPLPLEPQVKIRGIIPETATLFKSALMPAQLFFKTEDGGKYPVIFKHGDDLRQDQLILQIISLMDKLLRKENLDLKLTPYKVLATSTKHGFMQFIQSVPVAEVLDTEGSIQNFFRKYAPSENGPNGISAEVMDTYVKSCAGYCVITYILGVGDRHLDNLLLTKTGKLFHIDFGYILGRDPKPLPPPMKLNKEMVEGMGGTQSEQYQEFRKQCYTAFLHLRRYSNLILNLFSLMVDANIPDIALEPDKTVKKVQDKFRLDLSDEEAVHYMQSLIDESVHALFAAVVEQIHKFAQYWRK
Sequence of Ketosamine-3-kinase (Homo sapiens) (Q9HA64 whole entry): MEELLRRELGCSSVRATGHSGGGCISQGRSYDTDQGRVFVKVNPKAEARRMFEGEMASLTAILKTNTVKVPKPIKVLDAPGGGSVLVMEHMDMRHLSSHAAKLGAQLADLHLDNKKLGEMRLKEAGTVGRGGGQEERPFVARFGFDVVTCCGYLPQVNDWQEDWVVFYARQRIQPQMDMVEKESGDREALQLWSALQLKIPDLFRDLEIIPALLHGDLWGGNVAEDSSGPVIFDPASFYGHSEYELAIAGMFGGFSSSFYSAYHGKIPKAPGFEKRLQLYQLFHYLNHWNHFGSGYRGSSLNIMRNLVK
Sequence of (E3-independent) E2 ubiquitin-conjugating enzyme (Homo sapiens) (Q9C0C9 whole entry): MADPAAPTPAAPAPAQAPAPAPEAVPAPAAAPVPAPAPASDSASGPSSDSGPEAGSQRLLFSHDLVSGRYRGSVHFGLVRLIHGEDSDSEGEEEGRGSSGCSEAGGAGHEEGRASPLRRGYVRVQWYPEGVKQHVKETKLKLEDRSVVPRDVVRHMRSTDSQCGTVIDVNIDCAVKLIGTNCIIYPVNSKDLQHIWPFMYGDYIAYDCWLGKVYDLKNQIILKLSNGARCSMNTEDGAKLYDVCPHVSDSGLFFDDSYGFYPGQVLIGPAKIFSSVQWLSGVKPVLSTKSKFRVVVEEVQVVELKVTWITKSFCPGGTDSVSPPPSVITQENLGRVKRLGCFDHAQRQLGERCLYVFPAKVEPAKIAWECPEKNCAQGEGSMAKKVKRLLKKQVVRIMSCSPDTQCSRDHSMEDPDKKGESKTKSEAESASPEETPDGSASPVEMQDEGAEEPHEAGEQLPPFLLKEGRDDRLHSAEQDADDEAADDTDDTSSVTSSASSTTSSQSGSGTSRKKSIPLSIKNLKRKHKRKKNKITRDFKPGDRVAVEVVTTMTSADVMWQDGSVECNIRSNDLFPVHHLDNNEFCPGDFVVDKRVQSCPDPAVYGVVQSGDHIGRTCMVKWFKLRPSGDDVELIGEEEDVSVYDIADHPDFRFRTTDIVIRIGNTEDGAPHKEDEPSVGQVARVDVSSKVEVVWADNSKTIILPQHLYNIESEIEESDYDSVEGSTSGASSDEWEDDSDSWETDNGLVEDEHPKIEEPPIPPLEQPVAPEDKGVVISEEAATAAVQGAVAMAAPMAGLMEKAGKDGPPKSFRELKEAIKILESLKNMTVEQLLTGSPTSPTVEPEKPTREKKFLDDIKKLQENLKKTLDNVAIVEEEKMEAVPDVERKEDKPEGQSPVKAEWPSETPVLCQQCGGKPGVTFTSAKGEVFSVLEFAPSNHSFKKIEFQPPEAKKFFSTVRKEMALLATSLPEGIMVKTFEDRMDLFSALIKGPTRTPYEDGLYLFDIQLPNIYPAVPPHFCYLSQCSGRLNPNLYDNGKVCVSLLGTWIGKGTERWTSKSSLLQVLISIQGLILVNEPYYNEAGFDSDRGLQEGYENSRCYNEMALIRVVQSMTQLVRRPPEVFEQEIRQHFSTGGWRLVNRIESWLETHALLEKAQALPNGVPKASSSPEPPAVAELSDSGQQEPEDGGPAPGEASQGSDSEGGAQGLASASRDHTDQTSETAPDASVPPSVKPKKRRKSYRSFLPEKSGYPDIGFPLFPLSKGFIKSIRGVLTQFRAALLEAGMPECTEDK
Sequence of X antigen family member 1 (Homo sapiens) (Q9HD64 whole entry): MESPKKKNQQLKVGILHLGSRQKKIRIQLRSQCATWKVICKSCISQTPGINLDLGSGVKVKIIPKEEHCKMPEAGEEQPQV

C=CC(=O)Nc1ccccc1Nc1nc(Nc2ccc(N3CCN(CCOCCOCCOCCNC(=O)CCCC[C@@H]4SC[C@@H]5NC(=O)N[C@@H]54)CC3)cc2)ncc1Cl
active: Activity [1] | Activity [2] | Activity [3] | Activity [4] | Activity [5] | Activity [6] | Activity [7] | Activity [8] | Activity [9] | Activity [10] | Activity [11] | Activity [12] | Activity [13] | Activity [14] | Activity [15] | Activity [16] | Activity [17] | Activity [18] | Activity [19] | Activity [20] | Activity [21] | Activity (Moesin (Homo sapiens))

C=CC(=O)Nc1ccccc1Nc1nc(Nc2ccc(N3CCN(C)CC3)cc2)ncc1Cl
-5.7%: inhibition [22]
